The target in assay [1] is T1, Cbl (aa49-434) (Homo sapiens, UniProt P22681).
T1 construct: Cbl (aa49-434, in-house); made in house
T1 sequence (P22681 49-434): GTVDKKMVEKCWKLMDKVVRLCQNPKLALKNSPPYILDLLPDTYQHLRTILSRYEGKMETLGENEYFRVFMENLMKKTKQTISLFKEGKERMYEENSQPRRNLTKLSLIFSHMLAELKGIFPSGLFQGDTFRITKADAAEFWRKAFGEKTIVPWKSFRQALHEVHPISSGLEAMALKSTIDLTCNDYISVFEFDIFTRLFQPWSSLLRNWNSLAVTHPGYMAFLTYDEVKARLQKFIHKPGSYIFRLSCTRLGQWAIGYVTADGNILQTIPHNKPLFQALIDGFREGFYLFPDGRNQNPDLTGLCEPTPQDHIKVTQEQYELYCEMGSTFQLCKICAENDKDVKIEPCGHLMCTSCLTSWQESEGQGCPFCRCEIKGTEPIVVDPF
Nature of the assay: Biotin-labelled Cbl biochemical assay (CBL/E2-Ub binding, HTRF). The settings on record: 5.0 nM biotin labelled Cbl. How it is done: (§1) The assay in the absence of a Cbl-b/Cbl inhibitor, where phosphorylation of Cbl-b/Cbl by the Src kinase allows UbcH5B-Ub to bind to Cbl-b/Cbl and brings the Bodipy-Fluorescein tagged ubiquitin in proximity to the streptavidin-terbium bound to the N-terminal biotinylated Avi-tagged Cbl-b/Cbl. […] The lack of a FRET signal indicates Cbl-b/Cbl is inhibited by the Cbl-b/Cbl inhibitor.
5.0 nM recombinant biotin labelled Cbl was pre-incubated with a serial dilution of compounds (maximum concentration is 100 µM, 3-fold serially diluted, 16 points) at room temperature for 1.5 hour in an assay buffer containing 50 mM HEPES, pH 7.0, 100 mM NaCl, 0.01% BSA, 1 mM DTT, 0.01% Triton X-100. Then 10 nM in-house UbcH5B-Ub conjugate protein, 60 nM SRC (aa251-536, in-house), 0.5 mM ATP, 5 mM MgCl2 and Streptavidin-Tb cryptate (Cat: 610SATLB, Cisbio Bioassays) were added to plate and further incubated at room temperature for 2 hours.

Assay [2] addresses T2, Cbl-b (aa36-427) (Homo sapiens, UniProt Q13191).
T2 construct: Cbl-b (aa36-427, in-house); made in house
The experiment in a line: Biotin-labelled Cbl-b biochemical assay (CBLB/E2-Ub binding, HTRF). The settings on record: 5.0 nM biotin labelled Cbl-b. On the procedure: as §1
5.0 nM recombinant biotin labelled Cbl-b was pre-incubated with a serial dilution of compounds (maximum concentration is 100 μM, 3-fold serially diluted, 16 points) at room temperature for 1.5 hour in an assay buffer containing 50 mM HEPES, pH 7.0, 100 mM NaCl, 0.01% BSA, 1 mM DTT, 0.01% Triton X-100. Then 25 nM in-house UbcH5B-Ub conjugate protein, 60 nM SRC (aa251-536, in-house), 0.5 mM ATP, 5 mM MgCl2 and Streptavidin-Tb cryptate (Cat: 610SATLB, Cisbio Bioassays) were added to plate and further incubated at room temperature for 2 hours.
Background: In TR-FRET formats the signal depends on donor and acceptor labels being close together.

Assay [3] concerns the target T2, Cbl-b (aa36-427). Nature of the assay: Co-expressed Cbl-b with BirA biochemical assay (CBLB/E2-Ub binding, HTRF). The settings on record: 0.6 nM Cbl-b co-expressed with BirA, HTRF; read-out: co-express CBLB/E2-Ub-binding assay IC50.
Source text: as §1

The target in assay [4] is T1, Cbl (aa49-434). The experiment in a line: Co-expressed Cbl with BirA biochemical assay (CBL/E2-Ub binding, HTRF). The note with it: 0.6 nM Cbl co-expressed with BirA, read-out: co-express CBL/E2-Ub-binding assay IC50.
Source text: as §1

T2 sequence (Q13191 36-427): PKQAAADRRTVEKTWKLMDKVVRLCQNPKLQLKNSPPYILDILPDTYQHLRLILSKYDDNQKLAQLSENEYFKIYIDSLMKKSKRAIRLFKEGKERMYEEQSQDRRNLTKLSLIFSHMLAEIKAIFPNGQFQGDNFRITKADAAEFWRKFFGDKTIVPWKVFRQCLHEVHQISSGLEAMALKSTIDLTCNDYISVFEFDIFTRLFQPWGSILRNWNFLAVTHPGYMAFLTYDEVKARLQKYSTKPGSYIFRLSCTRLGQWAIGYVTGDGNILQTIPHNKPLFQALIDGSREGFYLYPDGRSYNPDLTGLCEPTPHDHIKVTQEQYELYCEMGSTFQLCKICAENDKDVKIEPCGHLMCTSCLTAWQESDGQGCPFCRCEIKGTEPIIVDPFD

With `CC1CC(c2cccc(NC(=O)c3cc(CN4CCC[C@H](C)C4)c4c(n3)CCC4)c2)(c2nncn2C)C1` (stereo partly drawn) [Compound C1, (S)—N-(3-(3-methyl-1-(4-methyl-4H-1,2,4-triazol-3-yl)cyclobutyl)phenyl)-4-((3-methylpiperidin-1-yl)methyl)-6,7-dihydro-5H-cyclopenta[b]pyridine-2-carboxamide], the IC50 at Cbl (aa49-434) [1] was determined as 60 nM; on Cbl-b (aa36-427) [2], 11 nM.

`C[C@@H]1CN(Cc2cc(C(=O)Nc3cccc([C@]4(c5nncn5C)C[C@@H](CC#N)C4)c3)c3nccn3c2)CCO1` [Compound A5, N-(3-((1s,3S)-3-(cyanomethyl)-1-(4-methyl-4H-1,2,4-triazol-3-yl)cyclobutyl)phenyl)-6-(((R)-2-methylmorpholino)methyl)imidazo[1,2-a]pyridine-8-carboxamide]: the IC50 was 914 nM at Cbl (aa49-434) [1] and 138 nM on Cbl-b (aa36-427) [2].

On to `C[C@H]1CCCN(Cc2cc(C(=O)Nc3cccc([C@]4(c5nncn5C)C[C@@H](C)C4)c3)nc3c2CC[C@@H]3C)C1` (single isomer, unassigned) [Compound C4, (S)-7-methyl-N-(3-((1s,3R)-3-methyl-1-(4-methyl-4H-1,2,4-triazol-3-yl)cyclobutyl)phenyl)-4-(((S)-3-methylpiperidin-1-yl)methyl)-6,7-dihydro-5H-cyclopenta[b]pyridine-2-carboxamide or (R)-7-methyl-N-(3-((1s,3S)-3-methyl-1-(4-methyl-4H-1,2,4-triazol-3-yl)cyclobutyl)phenyl)-4-(((S)-3-methylpiperidin-1-yl)methyl)-6,7-dihydro-5H-cyclopenta[b]pyridine-2-carboxamide], for which the IC50 on Cbl (aa49-434) [1] worked out at 76 nM; at Cbl-b (aa36-427) [2] it was 16.2 nM.

As to `CC1CCc2c(CN3CCC[C@H](C)C3)cc(C(=O)Nc3cccc([C@]4(c5nncn5C)C[C@@H](C)C4)c3)nc21` (stereo partly drawn) [Compound C2, 7-methyl-N-(3-((1s,3R)-3-methyl-1-(4-methyl-4H-1,2,4-triazol-3-yl)cyclobutyl)phenyl)-4-(((S)-3-methylpiperidin-1-yl)methyl)-6,7-dihydro-5H-cyclopenta[b]pyridine-2-carboxamide], the IC50 on Cbl (aa49-434) [1] was 28.8 nM; on Cbl-b (aa36-427) [2], 11.9 nM.

For the compound `C[C@H]1CCCN(Cc2cc(C(=O)Nc3cccc([C@]4(c5nncn5C)C[C@@H](C)C4)c3)nc3c2CCC3(F)F)C1` [Compound C5, 7,7-difluoro-N-(3-((1s,3R)-3-methyl-1-(4-methyl-4H-1,2,4-triazol-3-yl)cyclobutyl)phenyl)-4-(((S)-3-methylpiperidin-1-yl)methyl)-6,7-dihydro-5H-cyclopenta[b]pyridine-2-carboxamide], the figures for the IC50 on Cbl (aa49-434) [1] and on Cbl-b (aa36-427) [2] were 29.1 nM and 8.3 nM, respectively.

`C[C@H]1CCCN(Cc2cc(C(=O)Nc3cccc([C@]4(c5nncn5C)C[C@@H](C)C4)c3)c3nccn3c2)C1` [Compound A1, N-(3-((1s,3R)-3-methyl-1-(4-methyl-4H-1,2,4-triazol-3-yl)cyclobutyl)phenyl)-6-(((S)-3-methylpiperidin-1-yl)methyl)imidazo[1,2-a]pyridine-8-carboxamide]: the results for the IC50 on Cbl (aa49-434) [1] and on Cbl-b (aa36-427) [2] were 31.8 nM and 5.36 nM, respectively.

`C[C@H]1CCCN(Cc2cc(C(=O)Nc3cccc([C@]4(c5nncn5C)C[C@@H](C)C4)c3)nc3c2CC[C@@H]3C)C1` (single isomer, unassigned) [Compound C3, (S)-7-methyl-N-(3-((1s,3R)-3-methyl-1-(4-methyl-4H-1,2,4-triazol-3-yl)cyclobutyl)phenyl)-4-(((S)-3-methylpiperidin-1-yl)methyl)-6,7-dihydro-5H-cyclopenta[b]pyridine-2-carboxamide or (R)-7-methyl-N-(3-((1s,3S)-3-methyl-1-(4-methyl-4H-1,2,4-triazol-3-yl)cyclobutyl)phenyl)-4-(((S)-3-methylpiperidin-1-yl)methyl)-6,7-dihydro-5H-cyclopenta[b]pyridine-2-carboxamide]: the results for the IC50 on Cbl (aa49-434) [1] and on Cbl-b (aa36-427) [2] were 21.7 nM and 4.8 nM, respectively.

For `C[C@H]1CCCN(Cc2cc(C(=O)Nc3cccc([C@]4(c5nncn5C)C[C@@H](CC#N)C4)c3)nc3c2CCC3(F)F)C1` [Compound C6, N-(3-((1s,3R)-3-(cyanomethyl)-1-(4-methyl-4H-1,2,4-triazol-3-yl)cyclobutyl)phenyl)-7,7-difluoro-4-(((S)-3-methylpiperidin-1-yl)methyl)-6,7-dihydro-5H-cyclopenta[b]pyridine-2-carboxamide], the IC50 at Cbl (aa49-434) [1] was 48 nM; on Cbl-b (aa36-427) [2] it was 3.4 nM.

Consider `C[C@H]1CCCN(Cc2cc(C(=O)Nc3cccc([C@]4(c5nncn5C)C[C@H](C)C4)c3)c3nccn3c2)C1` [Compound A2, N-(3-((1r,3S)-3-methyl-1-(4-methyl-4H-1,2,4-triazol-3-yl)cyclobutyl)phenyl)-6-(((S)-3-methylpiperidin-1-yl)methyl)imidazo[1,2-a]pyridine-8-carboxamide], for which the IC50 at Cbl (aa49-434) [1] amounted to 23 nM; at Cbl-b (aa36-427) [2], 3.26 nM.

For `C[C@H]1CCCN(Cc2cc(C(=O)Nc3cccc([C@]4(Cc5nncn5C)C[C@@H](C#N)C4)c3)c3nccn3c2)C1` [Compound A4, N-(3-((1r,3S)-3-cyano-1-((4-methyl-4H-1,2,4-triazol-3-yl)methyl)cyclobutyl)phenyl)-6-(((S)-3-methylpiperidin-1-yl)methyl)imidazo[1,2-a]pyridine-8-carboxamide], the figures for the IC50 on Cbl (aa49-434) [1] and at Cbl-b (aa36-427) [2] were 28.7 nM and 3.3 nM, respectively.

With `C[C@H]1CCCN(Cc2cc(C(=O)Nc3cccc([C@]4(c5nncn5C)C[C@@H](CC#N)C4)c3)c3nccn3c2)C1` [Compound A3, N-(3-((1s,3R)-3-(cyanomethyl)-1-(4-methyl-4H-1,2,4-triazol-3-yl)cyclobutyl)phenyl)-6-(((S)-3-methylpiperidin-1-yl)methyl)imidazo[1,2-a]pyridine-8-carboxamide], the IC50 came out at 7.1 nM at Cbl-b (aa36-427) [3], 60.1 nM on Cbl (aa49-434) [1], 5.8 nM at Cbl-b (aa36-427) [2] and 47 nM at Cbl (aa49-434) [4].

The values above are taken from US20250163047A1, “HETEROCYCLIC COMPOUNDS, COMPOSITIONS THEREOF, AND METHODS OF TREATMENT THEREWITH” (BeiGene, Ltd., priority 2022, published 2025).
